Assay results as given in patent US20070191485A1, “Active oxygen scavenging composition including citrulline” (Nara Institute of Science and Technology, priority 2001, published 2007).
Where two headings read alike, the source gives them in different places.

What was measured:
[1] = test system: malate dehydrogenase (MDH); experiment: Effect of solutes on enzymatic activity of malate dehydrogenase (MDH); type: biochemical, wild water-melon (Citrullus lanatus sp. No. 101117-1)
Method: (§1) Safety of citrulline was compared with that of arginine, by investigation of inhibition on enzymatic activities of malate dehydrogenase (MDH) and lactate dehydrogenase (LDH), caused by high concentration citrulline and arginine. Chloride ion was used as ion pair for arginine, and assay on potassium chloride was performed to evaluate effect of the chloride ion as well.
(§2) Leaf tissue derived from wild water-melon (Citrullus lanatus sp. No. 101117-1) was fractured under cooling with liquid nitrogen. Then after extraction with extraction buffer (50 mM Tris-HCl, pH=7.5, 5 mM DTT, 5 μg/ml BSA, 15% glycerol), supernatant obtained by centrifugation at 10,000 g for 5 minutes was used as crude extraction fraction of malate dehydrogenase (MDH). Pig purified authentic enzyme available from Oriental Co., was used as lactate dehydrogenase (LDH). MDH reaction solution contained 100 mM Tris-HCl pH 7.5, 150 μM NADH, 250 μM oxaloacetic acid and 10 μL of enzyme solution, and the total volume of the solution was adjusted to 1 mL. As LDH reaction solution, a mixture containing 10 mM Tris-HCl pH 7.5, 150 μM NADH, 250 μM lithium pyruvate and 10 μL of enzyme solution was used. When effect of various kinds of solutes, e.g. citrulline, on enzymatic activity is to be investigated, pH of the solution was re-adjusted to 7.5 by using KOH after addition of the solute at various concentration. The reaction started at 25° C. by addition of substrate, then initial rate was determined by alteration of absorbance at 340 nm, accompanied by decrease of NADH. Incidentally, in FIG. 2 and FIG. 3, white columns indicate the results of citrulline, black columns indicate those of arginine chloride, and hatched columns indicate those of potassium chloride, respectively.

[2] = test system: lactate dehydrogenase (LDH); experiment: Effect of solutes on enzymatic activity of lactate dehydrogenase (LDH); type: biochemical, Pig
Method: as §1, §2

[3] = Kinetic analysis of reaction with hydroxyl radical (competition with hydroxylation of salicylic acid); settings: for Reaction rate constant (with hydroxyl radical): calculated from competitive reaction theory, mannitol as standard
Method: To evaluate ability of citrulline as an active oxygen scavenger, reaction rate between citrulline and hydroxyl radical was determined. Generation of hydroxyl radical was performed by a system using ascorbic acid and hydrogen peroxide. Here hydroxylation of salicylic acid was used as an index for radical generation. The reaction mixture contained 40 mM of K-Pi buffer, pH 7.4, 0.26 mM of ascorbate, 0.15 mM of FeEDTA, 0.6 mM of H2O2, 2 mM of salicylate and various compatible solutes, then the total volume was adjusted to 400 μL. After reaction at 25° C. for 90 minutes, reaction product of salicylic acid and a hydroxyl radical (namely, 2,3-dihydroxybenzoic acid) was altered to its chromogenic derivative. Then it was determined by absorbance at 510 nm. As the result, the secondary reaction rate constant on reaction of citrulline and hydroxyl radical was calculated from competitive reaction theory. As the standard reaction rate constant, a reported value of mannitol (1.7×10^9 M^−1 s^−1) was used.
The secondary reaction rate constants between the solutes and hydroxyl radical were roughly calculated.

pyruvate kinase (PK) = experiment: Protection of pyruvate kinase (PK) activity from injury by hydroxyl radical; type: biochemical, porcine; settings: after 120 minutes (about 36% without citrulline)
Method: The ability of citrulline to protect bio-molecules, such as enzymes or nucleic acids, from hydroxyl radical was investigated. That is, investigation on the effect of hydroxyl radical exerted to enzymatic activity of pyruvate kinase (PK) was performed. Here, hydroxyl radical was generated by a system using ascorbic acid and hydrogen peroxide. The inactivation mixture contained 100 mM of Tris-HCl buffer (pH 7.4), 2.5 U of porcine PK (available from Oriental CO.), 0.2 mM of ascorbate, 0.15 mM of FeEDTA, 0.6 mM of H2O2 and citrulline at various concentrations. Then the total volume was adjusted to 250 μL. The inactivation reaction started by adding H2O2 at 25° C. and 10 μL of aliquot was sampled at constant intervals. Then residual activity of the enzyme was determined. The reaction mixture for measurement of enzymatic activity contained 80 mM of Tris-HCl buffer (pH 7.4), 7.5 mM of MgCl2, 75 mM of KCl, 3.75 mM of ADP, 0.15 mM of NADH, 10 U of porcine LDH, 0.8 mM of PEP and 10 μL of inactivated PK enzyme. The reaction started by addition of substrate at 25° C., and initial rate was measured by alteration of absorbance at 340 nm, accompanied by increase or decrease of NADH. In FIG. 5, ∘ indicates absence of citrulline, ● indicates presence of 200 mM citrulline, ▴ indicates presence of 400 mM citrulline, and ▪ indicates without generation of active oxygen, respectively.

circular plasmid DNA = experiment: Protection of circular plasmid DNA from injury by hydroxyl radical (agarose gel electrophoresis); settings: after 2 hours
Method: Moreover, the effect of citrulline to prevent DNA from active oxygen injury was investigated. A solution containing 200 ng of circular plasmid DNA and various concentrations of citrulline was prepared and hydroxyl radical was generated by addition of 3 mM of H2O2 and 0.01 mM of FeEDTA. Then injury exerted on DNA was evaluated by agarose gel electrophoresis after 2 hours. The results were shown in FIG. 6 and lanes 1 to 7 indicated following experimental systems, respectively. In FIG. 6, lane 1 indicates molecular marker for electrophoresis. Lane 2 indicates a result untreated plasmid DNA. Lane 3 indicates a result from an experimental system wherein trivalent iron is added solely. Lane 4 indicates a result from an experimental system wherein hydroxyl radical was generated by addition of trivalent iron and hydrogen peroxide. Lane 5 indicates a result from an experimental system wherein 50 mM of citrulline was added to the system of lane 4 (the system with generation of active oxygen) to eliminate the generated active oxygen. Lane 6 indicates a result from an experimental system wherein 100 mM of citrulline was added to the system of lane 4 (the system with generation of active oxygen) to eliminate the generated active oxygen. Lane 7 indicates a result from an experimental system wherein 200 mM of citrulline was added to the system of lane 4 (the system with generation of active oxygen) to eliminate the generated active oxygen.

[4] = reported value used as the standard for calculation, cited from earlier work

NC(=O)NCCC[C@H](N)C(=O)O [Citrulline, citrulline]
inhibitory effect on malate dehydrogenase (MDH) ([1]; high concentration of solute): did not cause any inhibitory effect
MDH activity, % of control ([1]; in the presence of 200 mM): about 109%
inhibitory effect on lactate dehydrogenase (LDH) activity ([2]; high concentration of solute): not significant
decrease of LDH enzymatic activity ([2]; in the presence of 600 mM): about 10%
Reaction rate constant (with hydroxyl radical) [3]: 2.9e+09 M⁻¹ s⁻¹
potency as a scavenger of hydroxyl radical (FIG. 4) ([3]; compared with glycinebetaine, proline, mannitol): most significant among the four compatible solutes
calculated ID50 value (secondary reaction rate constant with hydroxyl radical) ([3]; roughly calculated): about 3×10^9 M^−1 s^−1
residual activity of PK, % of the initial activity (pyruvate kinase (PK); 200 mM citrulline): 61%
residual activity of PK, % of the initial activity (pyruvate kinase (PK); 400 mM citrulline): 74%
abscission of DNA (circular plasmid DNA; 50 mM citrulline (Lane 5)): markedly reduced
abscission of DNA (circular plasmid DNA; 100 mM citrulline (Lane 6)): markedly reduced
abscission of DNA (circular plasmid DNA; 200 mM citrulline (Lane 7)): markedly reduced

C[N+](C)(C)CC(=O)O [Glycinebetain, glycinebetaine, reference compound]
Reaction rate constant (with hydroxyl radical) [3]: 2.1e+07 M⁻¹ s⁻¹

OC[C@@H](O)[C@@H](O)[C@H](O)[C@H](O)CO [Mannitol, mannitol]
Reaction rate constant (with hydroxyl radical), reported standard value [4]: 1.7e+09 M⁻¹ s⁻¹
Reaction rate constant (with hydroxyl radical), reported standard value ([4]; listed as mannitol): 1.7e+09 M⁻¹ s⁻¹

O=C(O)[C@@H]1CCCN1 [Proline, proline, reference compound]
Reaction rate constant (with hydroxyl radical) [3]: 3e+08 M⁻¹ s⁻¹

O=C(O)c1ccccc1O [Salicylic acid, salicylic acid, reference compound]
Reaction rate constant (with hydroxyl radical) [3]: 6.3e+09 M⁻¹ s⁻¹

[Cl-].[K+] [potassium chloride, reference compound]
MDH enzymatic activity, % of the control activity ([1]; in the presence of 600 mM): 21%
LDH enzymatic activity, % of the control activity ([2]; in the presence of 600 mM): 64%
